Data published in publication PMC11252457 (Acta Pharmaceutica Sinica. B, 2024).

Experiments:
recombinant WT HIV-1 RT = recombinant WT HIV-1 RT (Human immunodeficiency virus type 1 group M subtype B, UniProt P03366); test: HIV-1 RT inhibition assay; type: biochemical
WT HIV-1 (IIIB) = test: microbe, parasite or virus in culture; type: cell-based; details: for EC50: Human immunodeficiency virus 1, IIIB, MT4, read-out: EC50 IIIB; for SI IIIB: ratio of CC50/EC50, IIIB
[1] = tested on: HIV-1 mutant strain L100I; test: microbe, parasite or virus in culture; type: cell-based; details: Human immunodeficiency virus 1, MT4, read-out: EC50 L100I
[2] = tested on: HIV-1 mutant strain E138K; test: microbe, parasite or virus in culture; type: cell-based; details: Human immunodeficiency virus 1, MT4, read-out: EC50 E138K
[3] = tested on: HIV-1 RES056 (K103N/Y181C); test: microbe, parasite or virus in culture; type: cell-based; details: for EC50: Human immunodeficiency virus 1, MT4, read-out: EC50 RES056; for SI RES056: ratio of CC50/EC50, RES056
[4] = tested on: HIV-1 mutant strain Y188L; test: microbe, parasite or virus in culture; type: cell-based; details: Human immunodeficiency virus 1, MT4, read-out: EC50 Y188L
[5] = tested on: HIV-1 mutant strain K103N; test: microbe, parasite or virus in culture; type: cell-based; details: Human immunodeficiency virus 1, MT4, read-out: EC50 K103N
[6] = Cytotoxicity in mock-infected MT-4 cells; details: human
[7] = tested on: HIV-1 mutant strain Y181C; test: microbe, parasite or virus in culture; type: cell-based; details: Human immunodeficiency virus 1, MT4, read-out: EC50 Y181C
[8] = tested on: HIV-1 double mutant strain F227L/V106A; test: microbe, parasite or virus in culture; type: cell-based; details: Human immunodeficiency virus 1, MT4, read-out: EC50 F227L/V106A

SMILES | IC50 (recombinant WT HIV-1 RT) [nM] | EC50 (WT HIV-1 (IIIB)) [nM] | SI IIIB (WT HIV-1 (IIIB)) | EC50 [1] [nM] | EC50 [2] [nM] | EC50 [3] [nM] | SI RES056 [3] | EC50 [4] [nM] | EC50 [5] [nM] | CC50 at 5 days [6] [nM] | EC50 [7] [nM] | EC50 [8] [nM]
CCOP(=O)(OCC)c1ccc(CN2CCC(Nc3nc(Oc4c(C)cc(C#N)cc4C)c4sccc4n3)CC2)cc1 [9c, Diethyl (4-((4-((4-(4-cyano-2,6-dimethylphenoxy)thieno[3,2-d]pyrimidin-2-yl)amino)piperidin-1-yl)methyl)phenyl)phosphonate] | 760 ± 150 | 6.9 ± 1.92 | 16,957 | 11.5 ± 3.27 | 12.3 ± 1.98 | 445 ± 109 | 263 | 17 ± 11 | ≤ 4.62 | 117000 ± 7750 | 13.2 ± 5.6 | 14.3 ± 4.55
Cc1cc(/C=C/C#N)cc(C)c1Oc1nc(NC2CCN(Cc3ccc(P(=O)(OC(C)C)OC(C)C)cc3)CC2)nc2ccsc12 [15f, Diisopropyl (E)-(4-((4-((4-(4-(2-cyanovinyl)-2,6-dimethylphenoxy)thieno[3,2-d]pyrimidin-2-yl)amino)piperidin-1-yl)methyl)phenyl)phosphonate] |  | 29.2 ± 9.12 | 152 | 56.1 ± 13.2 | 162 ± 35.8 | 401 ± 321 | 11 | 195 ± 32.3 | 41 ± 7.63 | 4450 ± 570 | 156 ± 59 | 79.3 ± 13
Cc1cc(/C=C/C#N)cc(C)c1Oc1nc(NC2CCN(Cc3ccc(P(=O)(O)O)cc3)CC2)nc2ccsc12 [compound 16, (E)-(4-((4-((4-(4-(2-Cyanovinyl)-2,6-dimethylphenoxy)thieno[3,2-d]pyrimidin-2-yl)amino)piperidin-1-yl)methyl)phenyl)phosphonic acid] |  | 3810 ± 1520 | >57 | 13600 | 19100 | 170000 | >1 | 133000 | 6270 ± 1900 | > 217000 | 30400 | 43500
CCCCOP(=O)(OCCCC)c1ccc(CN2CCC(Nc3nc(Oc4c(C)cc(/C=C/C#N)cc4C)c4sccc4n3)CC2)cc1 [15d, Dibutyl (E)-(4-((4-((4-(4-(2-cyanovinyl)-2,6-dimethylphenoxy)thieno[3,2-d]pyrimidin-2-yl)amino)piperidin-1-yl)methyl)phenyl)phosphonate] |  | 173 ± 54 | 71 | 265 ± 84.4 | 678 ± 196 | 1430 ± 173 | 9 | 714 ± 157 | 188 ± 17 | 12200 ± 3910 | 779 ± 316 | 495 ± 168
CCCCOP(=O)(OCCCC)c1ccc(CN2CCC(Nc3nc(Oc4c(C)cc(C#N)cc4C)c4sccc4n3)CC2)cc1 [9d, Dibutyl (4-((4-((4-(4-cyano-2,6-dimethylphenoxy)thieno[3,2-d]pyrimidin-2-yl)amino)piperidin-1-yl)methyl)phenyl)phosphonate] |  | 125 ± 39 | 62 | 230 ± 54 | 241 ± 34.9 | 6500 ± 483 | 1 | 240 ± 58.3 | 196 ± 13.6 | 7800 ± 1530 | 311 ± 50.4 | 248 ± 37.3
Cc1cc(C#N)cc(C)c1Oc1nc(NC2CCN(Cc3ccc(P(=O)(OCC(C)C)OCC(C)C)cc3)CC2)nc2ccsc12 [9h, Diisobutyl (4-((4-((4-(4-cyano-2,6-dimethylphenoxy)thieno[3,2-d]pyrimidin-2-yl)amino)piperidin-1-yl)methyl)phenyl)phosphonate] |  | 90.9 ± 50.8 | 97 | 135 ± 28.4 | 124 ± 31.4 | 13200 | 1 | 174 ± 94.9 | 53.3 ± 19 | 8780 ± 9120 | 182 ± 40.5 | 104 ± 53.1
Cc1cc(C#N)cc(C)c1Oc1nc(NC2CCN(Cc3ccc(P(=O)(OC(C)C)OC(C)C)cc3)CC2)nc2ccsc12 [9f, Diisopropyl (4-((4-((4-(4-cyano-2,6-dimethylphenoxy)thieno[3,2-d]pyrimidin-2-yl)amino)piperidin-1-yl)methyl)phenyl)phosphonate] |  | 24.8 ± 14.8 | 4476 | 29.5 ± 14.2 | 41.3 ± 15.3 | 514 ± 57.1 | 216 | 42 ± 11.7 | 22.6 ± 7.83 | 111000 ± 33600 | 73.5 ± 69.4 | 28.4 ± 13.4
Cc1cc(C#N)cc(C)c1Oc1nc(NC2CCN(Cc3ccc(P(=O)(O)O)cc3)CC2)nc2ccsc12 [compound 10, (4-((4-((4-(4-Cyano-2,6-dimethylphenoxy)thieno[3,2-d]pyrimidin-2-yl)amino)piperidin-1-yl)methyl)phenyl)phosphonic acid] |  | 16500 | >14 | > 227000 | 160000 | > 227000 | <1 | > 227000 | 147000 | > 227000 | > 227000 | > 227000
COP(=O)(OC)c1ccc(CN2CCC(Nc3nc(Oc4c(C)cc(/C=C/C#N)cc4C)c4sccc4n3)CC2)cc1 [15b, Dimethyl (E)-(4-((4-((4-(4-(2-cyanovinyl)-2,6-dimethylphenoxy)thieno[3,2-d]pyrimidin-2-yl)amino)piperidin-1-yl)methyl)phenyl)phosphonate] |  | 19.1 ± 13.9 | 1827 | 85.7 ± 28 | 64.5 ± 31.7 | 603 ± 139 | 58 | 478 ± 158 | 13 ± 3.8 | 34900 ± 2860 | 193 ± 74.8 | 129 ± 83.3
Cc1cc(/C=C/C#N)cc(C)c1Oc1nc(NC2CCN(Cc3ccc(P(=O)(OCC(C)C)OCC(C)C)cc3)CC2)nc2ccsc12 [15h, Diisobutyl (E)-(4-((4-((4-(4-(2-cyanovinyl)-2,6-dimethylphenoxy)thieno[3,2-d]pyrimidin-2-yl)amino)piperidin-1-yl)methyl)phenyl)phosphonate] |  | 151 ± 48.4 | 109 | 712 ± 158 | 758 ± 249 | 2200 ± 360 | 8 | 860 ± 218 | 239 ± 27 | 16500 ± 2050 | 1120 ± 106 | 886 ± 167
Cc1cc(C#N)cc(C)c1Oc1nc(NC2CCN(Cc3ccc(P(=O)(OC(C)(C)C)OC(C)(C)C)cc3)CC2)nc2ccsc12 [9g, Di-tert-butyl (4-((4-((4-(4-cyano-2,6-dimethylphenoxy)thieno[3,2-d]pyrimidin-2-yl)amino)piperidin-1-yl)methyl)phenyl)phosphonate] |  | 99.3 ± 37 | 164 | 310 ± 57.8 | 179 ± 19.8 | > 16300 | <1 | 445 ± 157 | 124 ± 26.2 | 16300 ± 4280 | 719 ± 263 | 637 ± 492
Cc1cc(/C=C/C#N)cc(C)c1Oc1nc(NC2CCN(Cc3ccc(P(=O)(OCC(F)(F)F)OCC(F)(F)F)cc3)CC2)nc2ccsc12 [15e, Bis(2,2,2-trifluoroethyl) (E)-(4-((4-((4-(4-(2-cyanovinyl)-2,6-dimethylphenoxy)thieno[3,2-d]pyrimidin-2-yl)amino)piperidin-1-yl)methyl)phenyl)phosphonate] |  | 138 ± 55.8 | 113 | 140 ± 50.5 | 423 ± 149 | 747 ± 242 | 21 | 497 ± 49.2 | 139 ± 65.7 | 15600 ± 2670 | 584 ± 272 | 338 ± 37.1
CCOP(=O)(OCC)c1ccc(CN2CCC(Nc3nc(Oc4c(C)cc(/C=C/C#N)cc4C)c4sccc4n3)CC2)cc1 [15c, Diethyl (E)-(4-((4-((4-(4-(2-cyanovinyl)-2,6-dimethylphenoxy)thieno[3,2-d]pyrimidin-2-yl)amino)piperidin-1-yl)methyl)phenyl)phosphonate] |  | 26.4 ± 15.1 | 309 | 20.1 ± 10.8 | 56.6 ± 19.1 | 110 ± 27.2 | 74 | 62.4 ± 22.7 | 15.5 ± 1.21 | 8150 ± 640 | 44.1 ± 25.6 | 27.1 ± 10.7
Cc1cc(/C=C/C#N)cc(C)c1Oc1nc(NC2CCN(Cc3ccc(P(=O)(OC(C)(C)C)OC(C)(C)C)cc3)CC2)nc2ccsc12 [15g, Di-tert-butyl (E)-(4-((4-((4-(4-(2-cyanovinyl)-2,6-dimethylphenoxy)thieno[3,2-d]pyrimidin-2-yl)amino)piperidin-1-yl)methyl)phenyl)phosphonate] |  | 20.6 ± 8.31 | 359 | 25.8 ± 15.8 | 59.7 ± 13.1 | 197 ± 30.5 | 38 | 55.3 ± 22.2 | 16.9 ± 7.68 | 7400 ± 2250 | 46.4 ± 7.56 | 43.7 ± 7.52
Cc1cc(C#N)cc(C)c1Oc1nc(NC2CCN(Cc3ccc(P(=O)(OCC(F)(F)F)OCC(F)(F)F)cc3)CC2)nc2ccsc12 [9e, Bis(2,2,2-trifluoroethyl) (4-((4-((4-(4-cyano-2,6-dimethylphenoxy)thieno[3,2-d]pyrimidin-2-yl)amino)piperidin-1-yl)methyl)phenyl)phosphonate] |  | 33 ± 7.63 | 527 | 165 ± 111 | 137 ± 83 | 1300 ± 120 | 13 | 142 ± 63.3 | 45.8 ± 4.61 | 17400 ± 2850 | 248 ± 60.4 | 65.1 ± 19.5
